The test system of series [1] is rat cardiac Troponin-I (cTnI). Description: Cardiac toxicity, serum cardiac Troponin-I (cTnI) ELISA after single IV dose. It counts as in vivo. The conditions noted are these: for cTnI concentrations in serum: 12, 24 and 48 h after single IV 10 mg/kg Dox or equimolar DoxQ. Here is the method: Samples were centrifuged to obtain the serum and stored at −20 °C in a freezer until analysis. On the day of the analysis, cTnI concentrations were measured in serum samples following the manufacturer’s instructions. The area under the effect curve (AUEC) was calculated for cTnI concentrations at 12–48 h post-dosing using the trapezoidal rule by WinNonlin® software.

A short description of series [2]: Renal toxicity, urinary output over 24 h after single IV dose. It counts as in vivo, rat. The conditions noted are these: 24 h after single IV 10 mg/kg Dox or equimolar DoxQ. Here is the method: The total urine volume excreted over 24 h post-dosing was compared to the total urine volume excreted over 24 h pre-dosing.
The test system of series [3] is β-N-acetylglucosaminidase (NAG). Put plainly: Renal toxicity, β-N-acetylglucosaminidase (NAG) in rat urine after single IV dose. It counts as in vivo. The conditions noted are these: after single IV 10 mg/kg Dox or equimolar DoxQ. The procedure:
Urine samples from pharmacokinetics experiments were collected from metabolic cages at 0 h, 12 h, 24 h, and 48 h and stored at −20 °C until analysis. Concentrations of NAG urine samples were measured using an assay kit from ALPCO Diagnostics (Salem, NH, USA, cat. No. 73-1290050) on a Medica EasyRA automated clinical chemistry analyzer (Medica Corporation, Bedford, MA, USA).

A short description of series [4]: in vivo. The conditions noted are these: male, Sprague-Dawley, rat, serum, po, 10 mg/kg, F, Dox after PO Dox 10 mg/kg, n = 3.
The nature of series [5]: Pharmacokinetic study after IV administration, rat serum and urine. The conditions noted are these: for fe, fraction excreted unchanged in urine: administered compound intact in urine; for CLhepatic: n = 3, CLtot minus CLrenal.
A short description of series [6]: Predicted physicochemical properties (VCCLAB, MarvinSketch, GastroPlus). The settings on record: predicted values. Here is the method: LogP and LogS values of DoxQ were predicted using an online computer software (VCCLAB, Virtual Computational Chemistry Laboratory). pKa, logP, logD at pH 7.4, intrinsic solubility, and solubility at pH 7.4 were calculated using MarvinSketch v. […] 9.0.0007 (Simulations Plus, Inc., Lancaster, CA, USA). […] The melting point of DoxQ was experimentally determined by MEL-TEMPII melting point apparatus from Laboratory Devices (Holliston, MA, USA).

A short description of series [7]: Intestinal lymphatic delivery, mesenteric lymph duct cannulated rat model. It counts as in vivo, male Sprague–Dawley rats. The settings on record: over one hour after oral 10 mg/kg, n = 3. The text has this:
The intestinal transport of DoxQ via lymphatics was examined in vivo by two methods.
Six male Sprague–Dawley rats (~300 g) were obtained from Charles River Labs (Montreal, QC, Canada) and given food (Purina Rat Chow 5001) and water ad libitum in the animal facility for at least three days before use. On the day of surgical operation, rats were anesthetized by isoflurane and the abdominal hair was shaved. Rats were maintained under inhaled anesthesia on a warm surgical table. A ~2.5 cm abdominal midline skin incision was made and extended through the musculature using blunt dissection beginning the incision at a point just above the xyphoid cartilage and proceeding distally. […] The lymph duct was isolated from the surrounding connective tissue and a small incision was made with a bent 23 G needle in the ventral wall of the lymph. A catheter was inserted through the incision and secured by placing a small cellulose patch with a drop of Vetbond^TM over the point of insertion into the lymph duct. When a gradual and continuous flow of lymph was observed, an initial lymph sample was collected into a normal microtube. […] Thereafter, lymph samples were collected over one hour after dosing. The animals were euthanized after the last lymph sample collection.

Another series relates to CYP3A4. Details: method as in PMID 28462502. The settings on record: in vitro; cited from earlier work.
Series [8] deals with P–gp-positive (MDCK–MDR) cells. The arrangement: method as in PMID 28462502. The conditions noted are these: cited from earlier work.
Series [9] relates to triple negative murine breast cancer cell line. The arrangement: method as in PMID 28462502. The settings on record: cited from earlier work.
For a further series, the system named is rat cardiomyocytes. Details: method as in PMID 28462502. The settings on record: cited from earlier work.
The next series relates to human cardiomyocytes. Details: method as in PMID 28462502. The settings on record: cited from earlier work.
Another series concerns CYP1B1. The arrangement: method as in PMID 28462502. The conditions noted are these: expression and catalytic activity; cited from earlier work.
On the set-up of series [10]: method as in PMID 28462502. The settings on record: in vitro; cited from earlier work.
Series [11] is described as follows: in vivo. The settings on record: male, Sprague-Dawley, rat, iv, 10 mg/kg.
[12] abbreviates: administered compound intact in rat serum, IV Dox 10 mg/kg or equimolar DoxQ, mean ± SEM.
Where [13] appears, read: IV Dox 10 mg/kg or equimolar DoxQ.
Setting [14] is: administered compound intact, IV Dox 10 mg/kg or equimolar DoxQ.
Where [15] appears, read: male, Sprague-Dawley, rat, serum, iv, 10 mg/kg.

Values joined by “and” are separate entries in the source; they are usually repeats but may differ in a detail not shown here. Equal values may be shown once. “Also recorded” adds a separate entry of the source.

One may read the bioavailability as the share of a dose that reaches the circulation, judged against a reference dose that is usually intravenous. Usually AUC(0-inf) stands for total exposure, with the tail of the curve extrapolated. Read a low AUC(0-inf) as less exposure. Usually AUC(0-t) stands for the area under the concentration-time curve up to a stated or last time point. Higher therefore signals high exposure. As a reminder, the clearance is a measure of how efficiently the substance is removed, as volume per time. Read a low clearance as inefficient removal. Broadly, the half-life is the time in which the quantity being followed falls by half. One may read the Vd as the apparent volume that relates the amount in the body to the concentration in plasma or blood. A high value points to extensive tissue distribution. With `COc1cccc2c1C(=O)c1c(O)c3c(c(O)c1C2=O)C[C@@](O)(C(=O)CO)C[C@@H]3O[C@H]1C[C@H](N)[C@H](O)[C@H](C)O1` [Dox, Doxorubicin], in series [1], the “cTnI concentrations in serum” value is listed as “increase in cTnI”. In [2], the “Total urine volume over 24 h” value is reported as “no significant difference”. In series [3], the “Cumulative amount of NAG excreted in urine” value was “higher cumulative amounts”. Moreover, the “F, bioavailability” value (Dox after PO Dox 10 mg/kg, n = 3) stood at 8.57 ± 0.71%. The compound also came in with a bioavailability in “in vivo [4]” of around 8.5%. In addition, the “Vss of Dox relative to Vss of DoxQ” value in [5] (IV, equimolar doses) is listed as ~ 80 fold. Also, in [5] (setting [12]), the C0 was found to be 24700 ± 14200 ng/mL and the Clast came to 120 ± 30 ng/mL. In addition, in series [5] (setting [13]), the “fe, fraction excreted unchanged in urine” value is ~ 11% and 10.73 ± 3.14%. The same compound yielded a CLhepatic in series [5] (setting [14]) of 39.2 ± 6 mL/min/kg. In [5] (setting [15]), the area under the curve AUC(0-inf) came to 4790 ± 1830 ng·h/mL, the AUC(0-t) came out at 3970 ± 700 ng·h/mL, the CL renal is 4.67 mL/min/kg and the clearance is 43.8 mL/min/kg. Further, in series [5] (setting [15]), the half-life was 4.69 ± 0.8 h and the k el was 4.44e-05 s⁻¹. The C0 in series [5] (male, Sprague-Dawley, rat, serum, iv, 10 mg/kg, C0, administered compound intact in rat serum, IV Dox 10 mg/kg or equimolar DoxQ, mean ± SEM) was around 25000 ng/mL. Also, the Vd in series [5] (male, Sprague-Dawley, rat, serum, iv, 10 mg/kg, Vss, administered compound intact, IV Dox 10 mg/kg or equimolar DoxQ, mean ± SEM) is 6.35 ± 2.11 L/kg.
For orientation: Vss means the apparent volume that relates the amount in the body to the concentration in plasma or blood. A high value points to wide distribution into tissue. For `COc1cccc2c1C(=O)c1c(O)c3c(c(O)c1C2=O)CC(O)(C(=O)CO)CC3OC1CC(NC(=O)CNC(=O)Oc2ccc(-c3oc4cc(O)cc(O)c4c(=O)c3O)cc2O)C(O)C(C)O1` (centres unmarked) [DoxQ], in series [6], the “LogP of DoxQ relative to Dox” value is on record as 3–5 fold. The “LogD7.4 of DoxQ relative to Dox” value in series [6] (pH 7.4) is given as 25 fold. The “Cumulative amount of Dox in mesenteric lymph fluid, compared to after Dox” value in series [7] is recorded as “twice as high; also recorded: two-fold higher”. The “cTnI concentrations in serum” value in series [1] (10 mg/kg) is listed as “also had an increase in cTnI at each time point”. The “AUEC of cTnI concentrations” value in series [1] (12–48 h after single IV 10 mg/kg Dox or equimolar DoxQ) is given as “lower than the AUEC after Dox”. Further, in series [2], the “Total urine volume over 24 h” value is “no significant difference”. The “Cumulative amount of NAG excreted in urine” value in series [3] (10 mg/kg) is on record as “lower after IV DoxQ than Dox”. Besides, the “Intact DoxQ in serum after oral dosing” value (PO DoxQ) is given as “not detected”. For the same compound, the “Inhibition of CYP3A4” value in the series with CYP3A4 is “inhibited”. The “Cellular uptake compared to free Dox” value in [8] is reported as “higher cellular uptake”. Also, the Anti-cancer activity result in series [9] was “retained anti-cancer activity”. Besides, the “Toxicity to cardiomyocytes compared to Dox” value in the series on rat cardiomyocytes is “less toxic; also recorded: less cardiotoxic than Dox”. Further, the “Toxicity to cardiomyocytes compared to Dox” value with human cardiomyocytes is given as “less toxic; also recorded: less cardiotoxic than Dox”. For the same compound, the “Effect on CYP1B1” value in the series with CYP1B1 was “inhibitory effects”. The “Release of Dox and quercetin from DoxQ” value in [10] is “controlled release of both Dox and quercetin released from DoxQ over four days”. Moreover, in the series “in vivo [11]”, the AUC(0-t) was found to be 18600 ± 1980 ng·h/mL, the CL renal is 0.333 mL/min/kg, the clearance was 8.83 mL/min/kg and the half-life is 9.6 ± 18 min. The same compound showed a k el in “in vivo [11]” of 0.00127 s⁻¹. In “in vivo [11]” (C0, administered compound intact in rat serum, IV Dox 10 mg/kg or equimolar DoxQ, mean ± SEM), this compound had a C0 of around 108000 ng/mL. Moreover, the Vd in “in vivo [11]” (Vss, administered compound intact, IV Dox 10 mg/kg or equimolar DoxQ, mean ± SEM) was 0.138 ± 0.015 L/kg. In [5] (IV, equimolar doses), the “AUC of intact DoxQ relative to AUC of Dox after Dox” value was 5 fold; the “C0 / serum concentration of intact DoxQ relative to Dox after Dox” value was 4–5 fold and 5 fold. In series [5] (setting [12]), this compound returned a C0 of 108000 ± 26400 ng/mL and a Clast of 1110 ± 170 ng/mL. Also, the “fe, fraction excreted unchanged in urine” value in series [5] (setting [13]) is ~ 5% and 4.32 ± 1.005%. Besides, the Vss in series [5] (administered compound intact, IV Dox 10 mg/kg or equimolar DoxQ, mean ± SEM) came to 0.08 ± 0.015 L/kg. This compound yielded a CLhepatic in [5] (setting [14]) of 8.5 ± 1 mL/min/kg.
